Results from ChEMBL document CHEMBL1201862, “PubChem BioAssay data set” (2004).
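Five compound concentrations were applied to cells in 96-well plates for 48 hours; endpoints were derived by simple linear interpolation of the resulting dose-response curve. The concentration for 50% growth inhibition is given as GI50.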 The source made the active and inactive calls. Rule as the data show it: active = GI50 up to about 1.1 µM and inactive = higher.

Columns and labels:
Assay in all cases: NCI tumour cell line growth inhibition, 48 h
[1] = test system: DMS-114
[2] = test system: XF498
[3] = test system: DMS-273
[4] = test system: SNB-78
[5] = test system: KM-20L2
[6] = test system: LXFL 529
[7] = test system: HOP-18
[8] = test system: RXF 631

Measured: GI50

CCOC(=O)C(/N=N\c1ccc(S(N)(=O)=O)cc1)C(C)=O (stereo not drawn)
inactive: [1] > 100 µM | [2] > 100 µM | [3] > 100 µM | [4] > 100 µM | [5] > 100 µM | [6] > 100 µM | [7] > 100 µM | [8] > 100 µM
